Results reported in patent US20130310436A1, “METHODS FOR PREDICTING RESPONSE TO BETA-BLOCKER THERAPY IN NON-ISCHEMIC HEART FAILURE PATIENTS” (The Regents of the University of Colorado, a body corporate, priority 2012, published 2013).

Legend:
Type in all cases: in vivo, human
[1] = test system: patients with non-ischemic HFREF; assay: BEST trial retrospective analysis: cumulative all-cause mortality, bucindolol vs placebo, by latent class subtype
Source text: (§1) Methods: A total of 1121 patients with non-ischemic HFREF from the β-blocker Evaluation of Survival Trial were categorized according to 27 clinical features. See Tables 1 and 2 for the clinical features or information used. Latent class analysis was used to generate two latent class models, LCM A and B, Tables 3 and 4, respectively, to identify HFREF subtypes. LCM A consisted of features associated with HF pathogenesis, whereas LCM B consisted of markers of HF progression and severity. The Seattle Heart Failure Model (SHFM) Score was also calculated for all patients. Mortality, improvement in left ventricular ejection fraction (LVEF) defined as an increase in LVEF ≧5% and a final LVEF of […] after 12 months, and effect of bucindolol on both outcomes were compared across HFREF subtypes. Performance of models that included a combination of LCM subtypes and SHFM scores towards predicting mortality and LVEF response was estimated and subsequently validated using leave-one-out cross-validation and data from the Multicenter Oral Carvedilol Heart Failure Assessment (MOCHA) Trial.
(§2) Methods: All patients had New York Heart Association (NYHA) class III or IV HFREF (LVEF ≦35%) and were randomized in a double-blind fashion to either bucindolol (a β-blocker) or placebo. Patients were considered ischemic if they had ≧70% obstruction in a major epicardial coronary artery by angiography or evidence of prior myocardial infarction and excluded from this analysis. The primary endpoint was cumulative all-cause mortality. Secondary endpoints were all-cause mortality at one year and LVEF response defined as improvement in LVEF ≧5% with a final LVEF of ≧35% as measured using multi-gated acquisition scan (MUGA). […] They were randomized to placebo, low (6.25 mg bid), medium (12.5 mg bid), or high-dose (25 mg bid) carvedilol. Death and LVEF improvement as measured by MUGA were secondary endpoints in the original MOCHA analysis. Mortality data was only available up to one year of follow-up in MOCHA.
(§3) Association between latent class models and outcomes: Cox proportional-hazards models and the log-rank test were used to examine the associations between latent classes and cumulative all-cause mortality according to the intention-to-treat principle. These models were fit using the coxph and survfit functions from the survival library in the R statistical package. Logistic regression models were used for the one-year mortality and LVEF response outcomes. Interactions between latent classes and the treatment groups were used to estimate the response to treatment within each subtype.

[2] = test system: patients with non-ischemic HFREF; assay: BEST trial retrospective analysis: all-cause mortality at one year, bucindolol vs placebo, by latent class subtype
Source text: as §1
as §2, with “MOCHA. […]” for “MOCHA.”

[3] = test system: patients with non-ischemic HFREF; assay: BEST trial retrospective analysis: LVEF response (improvement in LVEF ≧5% with final LVEF ≧35%, MUGA), bucindolol vs placebo, by latent class subtype
Source text: as §1, §2, §3

SMILES: CC(C)(Cc1c[nH]c2ccccc12)NCC(O)COc1ccccc1C#N (stereo not shown) [bucindolol]
- reduction in cumulative all-cause mortality associated with bucindolol ([1]; LCM A subtype A1): no reduction
- reduction in mortality with bucindolol ([1]; LCM A subtype A2 (discussion)): no significant reduction
- all-cause mortality with bucindolol ([1]; LCM A subtype A6, only LCM A subtype (discussion)): decrease
- absolute risk reduction, cumulative all-cause mortality ([1]; LCM A subtype A6, p=0.01): 10.2%
- relative risk reduction, cumulative all-cause mortality ([1]; LCM A subtype A6, p=0.01): 42%
- improvement in mortality associated with bucindolol ([1]; LCM B subtype B2, p=0.01): significant improvement
- overall effect of bucindolol ([1]; all non-ischemic BEST patients (discussion)): not significant
- patients in the bucindolol group died (cumulative all-cause mortality) ([1]; all non-ischemic BEST patients, 131/558): 23.5%
- HR, cumulative all-cause mortality, bucindolol vs placebo ([1]; all non-ischemic BEST patients, 95% CI 0.65-1.04, p=0.1): 0.82
- effect of bucindolol on one-year mortality ([2]; LCM A subtype A3, at 12 months, disappeared at subsequent follow-up): marginally significant difference
- effect of bucindolol on one-year mortality ([2]; LCM A subtype A6, did not reach statistical significance): trended towards benefit
- effect of bucindolol on one-year mortality ([2]; LCM B subtype B2, did not reach statistical significance): trended towards benefit
- likelihood of LVEF response with bucindolol ([3]; LCM A subtype A1): no effect
- likelihood of LVEF response with bucindolol ([3]; LCM A subtype A2): significant increase
- absolute increase in likelihood of LVEF response ([3]; LCM A subtype A3): 24.3%
- likelihood of LVEF response with bucindolol ([3]; LCM A subtype A3): significant increase
- relative increase in likelihood of LVEF response ([3]; LCM A subtype A3): 156%
- likelihood of LVEF response with bucindolol ([3]; LCM A subtype A5): significant increase
- likelihood of LVEF response with bucindolol ([3]; LCM A subtype A6): significant increase
- likelihood of improvement in LVEF ([3]; LCM B subtype B1): reached statistical significance
- likelihood of improvement in LVEF ([3]; LCM B subtype B2): reached statistical significance
- likelihood of improvement in LVEF ([3]; all LCM B subtypes, relative and absolute terms): increased comparably
